Measured values as given in ChEMBL document CHEMBL5137058, “Therapeutic Strategies to Target the Androgen Receptor” (J Med Chem, 2022).

What was measured:
[1] = In vivo antagonist activity at Androgen receptor assessed as reduction in wax ester in golden hamster ear model; type: functional, Cricetinae; parameters: concentration or dose not given beside the values
Androgen receptor [2] = molecular target: T1, Androgen receptor (Homo sapiens, UniProt P10275); assay: Binding affinity to Androgen receptor (unknown origin); details: read-out: IC50
T1 sequence (P10275 whole entry): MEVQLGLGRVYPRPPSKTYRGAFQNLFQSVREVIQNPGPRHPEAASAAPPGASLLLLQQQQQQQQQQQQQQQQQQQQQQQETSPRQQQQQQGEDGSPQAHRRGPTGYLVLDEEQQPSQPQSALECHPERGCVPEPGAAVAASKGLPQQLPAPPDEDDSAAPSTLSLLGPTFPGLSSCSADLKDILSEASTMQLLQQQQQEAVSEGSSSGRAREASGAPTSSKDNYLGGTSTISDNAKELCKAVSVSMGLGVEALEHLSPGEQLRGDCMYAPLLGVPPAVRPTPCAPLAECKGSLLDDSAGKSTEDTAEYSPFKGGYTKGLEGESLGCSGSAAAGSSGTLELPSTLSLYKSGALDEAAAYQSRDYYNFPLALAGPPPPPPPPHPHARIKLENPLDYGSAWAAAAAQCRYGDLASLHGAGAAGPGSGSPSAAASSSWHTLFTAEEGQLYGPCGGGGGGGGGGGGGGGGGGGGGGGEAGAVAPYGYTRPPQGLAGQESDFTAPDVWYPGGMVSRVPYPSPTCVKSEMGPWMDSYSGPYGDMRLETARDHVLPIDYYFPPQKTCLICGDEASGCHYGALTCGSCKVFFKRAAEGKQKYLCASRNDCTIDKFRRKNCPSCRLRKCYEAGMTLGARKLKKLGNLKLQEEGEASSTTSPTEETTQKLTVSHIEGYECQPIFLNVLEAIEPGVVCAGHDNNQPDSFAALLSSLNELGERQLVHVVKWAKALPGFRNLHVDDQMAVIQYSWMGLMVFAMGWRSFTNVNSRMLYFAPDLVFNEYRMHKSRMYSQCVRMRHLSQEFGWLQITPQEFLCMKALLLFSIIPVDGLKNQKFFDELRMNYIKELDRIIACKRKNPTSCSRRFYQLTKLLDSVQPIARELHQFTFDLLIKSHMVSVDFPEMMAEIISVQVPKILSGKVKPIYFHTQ

Androgen receptor [3] = molecular target: T1, Androgen receptor; assay: Binding affinity to human Androgen receptor
[4] = In vivo agonist activity at Androgen receptor in castrated male rat assessed as increase in prostate weight at 0.75 mg/kg, po administered for 14 days; type: functional; details: time 14 day
[5] = In vivo agonist activity at Androgen receptor in castrated male rat assessed as increase in levator ani muscle weight at 0.75 mg/kg, po administered for 14 days; type: functional; details: time 14 day
[6] = tested on: Androgen receptor (Homo sapiens), P10275 [UNDEFINED MUTATION]; assay: Induction of degradation of Androgen receptor splice variant 3 (unknown origin) at 7.5 uM
[7] = molecular target: T2, Androgen receptor (Homo sapiens) (UniProt P10275); assay: Induction of degradation of Androgen receptor (unknown origin) at 7.5 uM
T2 sequence (whole entry): T1 sequence (P10275 whole entry)

[8] = molecular target: GABA-A receptor; anion channel; assay: Binding affinity to GABA A receptor (unknown origin); type: protein-complex assay, Homo sapiens
Androgen receptor [9] = molecular target: T1, Androgen receptor; assay: Displacement of [3H]DHT from Androgen receptor expressed in human MDA-MB-453 cells; type: cell-based
Androgen receptor [10] = molecular target: T1, Androgen receptor; assay: Antagonist activity at Androgen receptor in human MDA-MB-453 cells measured by SEAP reporter gene assay; type: cell-based
LNCaP = assay: Antiproliferative activity against human LNCaP cells; type: functional, cell-based
Androgen receptor [11] = molecular target: Androgen receptor (Mus musculus, UniProt P19091); assay: Agonist activity at Androgen receptor (unknown origin) transfected in mouse C2C12 cells measured by luciferase reporter assay; type: cell-based
Rattus norvegicus = assay: Anti-androgenic activity in testosterone-treated castrated rat assessed as reduction in prostate weight at 2 mg administered orally per day for 5 days; type: functional; parameters: Activity: scale not given: the % may be the effect or the level left; details: route po, time 5 day
Androgen receptor [12] = molecular target: T1, Androgen receptor; assay: Partial agonist activity at human Androgen receptor
SC-3 = assay: Antiproliferative activity against mouse SC-3 cells; type: functional, cell-based
Androgen receptor [13] = molecular target: Androgen receptor (Homo sapiens, UniProt P10275, T878A); assay: Binding affinity to bicalutamide-resistant Androgen receptor T878A mutant (unknown origin)
Androgen receptor [14] = molecular target: T1, Androgen receptor; assay: Agonist activity at human Androgen receptor
[15] = molecular target: T3, Protein cereblon/Androgen receptor/Cullin-4A (Homo sapiens, UniProt P10275+Q96SW2+Q13619); assay: Protac activity at CRBN/Cullin 4A/Androgen receptor in human VCaP cells assessed as Androgen receptor degradation; type: cell-based
[16] = molecular target: T3, Protein cereblon/Androgen receptor/Cullin-4A; assay: Protac activity at CRBN/Cullin 4A/Androgen receptor in human LNCaP cells assessed as Androgen receptor degradation; type: cell-based
[17] = Oral bioavailability in mouse; type: ADME, organism-based; details: in vivo
Androgen receptor [18] = molecular target: Androgen receptor (Rattus norvegicus, UniProt P15207); assay: Binding affinity to rat Androgen receptor in African green monkey COS-7 cells measured by whole-cell binding assay; type: cell-based
Androgen receptor [19] = molecular target: T1, Androgen receptor; assay: Agonist activity to human Androgen receptor in African green monkey COS-7 cells measured by luciferase reporter assay; type: cell-based
[20] = molecular target: T2, Androgen receptor (Homo sapiens); assay: Agonist activity at androgen receptor (unknown origin) at 1 uM relative to control; details: filed as agonist

T3 sequence (Q96SW2 whole entry, one chain of several): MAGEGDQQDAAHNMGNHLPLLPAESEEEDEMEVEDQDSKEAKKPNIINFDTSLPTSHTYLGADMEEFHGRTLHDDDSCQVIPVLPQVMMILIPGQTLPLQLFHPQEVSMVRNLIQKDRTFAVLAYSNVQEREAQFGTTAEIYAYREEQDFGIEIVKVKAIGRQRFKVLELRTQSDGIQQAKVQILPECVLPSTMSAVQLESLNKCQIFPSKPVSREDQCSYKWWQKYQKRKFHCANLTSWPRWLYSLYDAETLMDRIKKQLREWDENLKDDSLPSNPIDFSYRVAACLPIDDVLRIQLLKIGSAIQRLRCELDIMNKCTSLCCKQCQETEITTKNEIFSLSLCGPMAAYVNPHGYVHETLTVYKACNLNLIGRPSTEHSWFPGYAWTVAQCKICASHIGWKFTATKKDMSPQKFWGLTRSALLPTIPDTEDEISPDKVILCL
T3 sequence (Q13619 whole entry, one chain of several): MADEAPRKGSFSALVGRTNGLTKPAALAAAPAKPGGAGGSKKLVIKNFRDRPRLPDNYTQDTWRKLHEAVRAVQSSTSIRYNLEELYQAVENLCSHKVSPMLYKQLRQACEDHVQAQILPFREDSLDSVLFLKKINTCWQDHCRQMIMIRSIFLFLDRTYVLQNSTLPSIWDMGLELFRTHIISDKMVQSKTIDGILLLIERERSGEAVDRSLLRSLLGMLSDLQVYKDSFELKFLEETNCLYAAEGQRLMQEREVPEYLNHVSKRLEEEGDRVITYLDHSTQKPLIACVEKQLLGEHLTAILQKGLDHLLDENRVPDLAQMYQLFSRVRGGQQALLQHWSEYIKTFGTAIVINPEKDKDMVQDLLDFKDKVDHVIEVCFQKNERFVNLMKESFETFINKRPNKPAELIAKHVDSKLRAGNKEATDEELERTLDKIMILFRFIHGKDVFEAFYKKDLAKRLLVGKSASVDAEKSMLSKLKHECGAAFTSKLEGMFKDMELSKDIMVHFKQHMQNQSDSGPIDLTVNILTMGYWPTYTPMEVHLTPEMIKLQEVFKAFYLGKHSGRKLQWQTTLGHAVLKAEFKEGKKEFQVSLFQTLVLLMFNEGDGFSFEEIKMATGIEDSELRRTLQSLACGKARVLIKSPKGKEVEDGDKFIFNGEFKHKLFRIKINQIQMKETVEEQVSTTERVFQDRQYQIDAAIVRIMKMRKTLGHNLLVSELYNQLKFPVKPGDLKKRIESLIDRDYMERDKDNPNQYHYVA
Sequence of Androgen receptor (Rattus norvegicus, UniProt P15207) (P15207 whole entry S389L): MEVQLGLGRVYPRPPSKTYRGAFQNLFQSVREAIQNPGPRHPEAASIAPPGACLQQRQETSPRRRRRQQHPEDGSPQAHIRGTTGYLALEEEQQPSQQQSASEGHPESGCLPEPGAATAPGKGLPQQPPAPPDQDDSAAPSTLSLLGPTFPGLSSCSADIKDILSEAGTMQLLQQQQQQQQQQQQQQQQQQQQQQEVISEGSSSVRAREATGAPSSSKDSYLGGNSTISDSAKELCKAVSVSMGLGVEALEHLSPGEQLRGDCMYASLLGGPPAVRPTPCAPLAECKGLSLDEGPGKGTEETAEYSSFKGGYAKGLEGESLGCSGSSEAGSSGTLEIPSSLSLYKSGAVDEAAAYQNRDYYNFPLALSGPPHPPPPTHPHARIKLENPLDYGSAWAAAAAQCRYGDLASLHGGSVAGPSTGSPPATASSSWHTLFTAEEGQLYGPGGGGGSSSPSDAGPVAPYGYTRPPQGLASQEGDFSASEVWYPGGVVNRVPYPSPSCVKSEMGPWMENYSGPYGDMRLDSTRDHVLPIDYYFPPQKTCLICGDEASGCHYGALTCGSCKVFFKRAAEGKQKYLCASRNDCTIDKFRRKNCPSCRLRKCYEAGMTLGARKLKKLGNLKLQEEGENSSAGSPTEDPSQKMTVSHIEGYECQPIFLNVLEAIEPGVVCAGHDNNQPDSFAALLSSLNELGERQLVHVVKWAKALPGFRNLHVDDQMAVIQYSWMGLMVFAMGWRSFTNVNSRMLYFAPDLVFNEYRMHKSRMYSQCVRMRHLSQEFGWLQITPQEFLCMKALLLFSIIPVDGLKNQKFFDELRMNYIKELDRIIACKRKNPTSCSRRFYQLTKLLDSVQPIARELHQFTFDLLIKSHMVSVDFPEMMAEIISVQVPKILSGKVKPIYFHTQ
Sequence of Androgen receptor (Homo sapiens, UniProt P10275, T878A) (P10275 whole entry T878A): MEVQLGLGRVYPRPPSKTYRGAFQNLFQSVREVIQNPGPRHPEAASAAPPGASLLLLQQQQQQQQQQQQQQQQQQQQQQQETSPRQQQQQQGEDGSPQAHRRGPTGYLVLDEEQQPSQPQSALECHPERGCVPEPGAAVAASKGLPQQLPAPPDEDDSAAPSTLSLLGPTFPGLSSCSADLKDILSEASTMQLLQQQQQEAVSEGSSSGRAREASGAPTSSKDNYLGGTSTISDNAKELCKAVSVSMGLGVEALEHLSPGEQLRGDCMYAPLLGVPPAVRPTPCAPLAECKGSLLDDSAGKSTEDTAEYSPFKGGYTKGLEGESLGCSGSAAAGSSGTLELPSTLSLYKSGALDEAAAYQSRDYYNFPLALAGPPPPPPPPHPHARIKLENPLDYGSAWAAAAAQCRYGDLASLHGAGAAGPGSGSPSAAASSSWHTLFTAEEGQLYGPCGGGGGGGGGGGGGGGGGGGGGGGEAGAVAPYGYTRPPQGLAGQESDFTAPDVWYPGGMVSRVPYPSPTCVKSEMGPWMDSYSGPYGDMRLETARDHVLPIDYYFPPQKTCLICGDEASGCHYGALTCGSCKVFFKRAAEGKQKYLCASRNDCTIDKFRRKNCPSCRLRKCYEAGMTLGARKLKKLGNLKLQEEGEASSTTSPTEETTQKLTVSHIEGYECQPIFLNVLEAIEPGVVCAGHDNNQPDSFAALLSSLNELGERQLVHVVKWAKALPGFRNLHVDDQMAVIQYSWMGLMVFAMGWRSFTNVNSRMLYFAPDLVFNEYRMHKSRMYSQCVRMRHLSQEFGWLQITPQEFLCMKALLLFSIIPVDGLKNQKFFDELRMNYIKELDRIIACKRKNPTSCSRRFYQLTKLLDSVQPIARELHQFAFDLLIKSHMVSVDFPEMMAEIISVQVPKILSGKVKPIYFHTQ
Sequence of Androgen receptor (Mus musculus, UniProt P19091) (P19091 whole entry): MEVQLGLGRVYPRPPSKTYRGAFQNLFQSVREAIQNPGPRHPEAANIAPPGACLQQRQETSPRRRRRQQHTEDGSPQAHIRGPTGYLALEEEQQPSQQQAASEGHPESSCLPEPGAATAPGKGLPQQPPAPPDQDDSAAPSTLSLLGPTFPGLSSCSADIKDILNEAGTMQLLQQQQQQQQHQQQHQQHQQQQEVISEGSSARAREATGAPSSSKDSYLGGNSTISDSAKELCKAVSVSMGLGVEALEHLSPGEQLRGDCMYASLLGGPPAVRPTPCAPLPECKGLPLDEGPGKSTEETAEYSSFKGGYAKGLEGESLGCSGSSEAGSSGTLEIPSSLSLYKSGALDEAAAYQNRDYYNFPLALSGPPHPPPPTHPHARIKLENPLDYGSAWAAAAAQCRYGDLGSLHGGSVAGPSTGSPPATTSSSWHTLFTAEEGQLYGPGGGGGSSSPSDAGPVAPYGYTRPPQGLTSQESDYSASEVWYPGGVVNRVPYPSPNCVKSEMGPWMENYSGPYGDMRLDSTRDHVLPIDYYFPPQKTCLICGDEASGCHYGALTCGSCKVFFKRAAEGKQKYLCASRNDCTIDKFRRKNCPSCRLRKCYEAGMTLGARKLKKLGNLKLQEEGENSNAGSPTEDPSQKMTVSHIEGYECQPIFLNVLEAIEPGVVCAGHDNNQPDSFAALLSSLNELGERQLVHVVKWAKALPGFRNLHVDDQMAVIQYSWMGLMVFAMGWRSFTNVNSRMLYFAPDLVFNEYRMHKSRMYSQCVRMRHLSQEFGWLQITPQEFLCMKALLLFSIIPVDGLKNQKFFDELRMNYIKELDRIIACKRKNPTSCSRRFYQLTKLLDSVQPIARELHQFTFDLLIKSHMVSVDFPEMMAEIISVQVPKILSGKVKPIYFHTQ

## Cc1ccccc1Oc1ccc(C#N)c(Cl)c1
[1]
  Activity: >87%

## CC(O)(COC(=O)c1ccccc1C(F)(F)F)c1cc2cc([N+](=O)[O-])c(C(F)(F)F)cc2[nH]1 (stereo not given)
Androgen receptor [2]
  IC50: 140 nM

## C[C@]12COC(=O)C[C@@H]1CC[C@@H]1[C@@H]2CC[C@@]2(C)[C@H]1CC[C@]2(C)O [OXANDROLONE]
Androgen receptor [3]
  Ki: 62 nM

## N#Cc1ccc(N2CCC[C@@H]2[C@@H](O)C(F)(F)F)cc1C(F)(F)F [VK5211]
Androgen receptor [3]
  Ki: 1 nM

## Cc1c(N2C3CCC2CC(C)(O)C3)ccc(C#N)c1Cl (stereo not given)
Androgen receptor [3]
  IC50: 1 nM
[4]
  Activity: 21%
[5]
  Activity: 68%

## COc1ccc(/C=C/C(=O)/C=C(O)/C=C/c2ccc(OC)c(OC)c2)cc1OC
[6]
  Activity: > 80%
[7]
  Activity: > 80%

## CNC(=O)c1ccc(N2C(=S)N(c3cnc(C#N)c(C(F)(F)F)c3)C(=O)C23CCC3)cc1F [APALUTAMIDE]
[8]
  IC50: 3000 nM

## C[C@@]12O[C@@](C)(C[C@H]1O)[C@@H]1C(=O)N(c3ccc(C#N)c(I)c3)C(=O)[C@@H]12
Androgen receptor [9]
  Ki: 2.4 nM
Androgen receptor [10]
  IC50: 19 nM

## CC1(C)C(=O)N(c2ccc(C#N)c(Cl)c2)C(=S)N1CCCS(N)(=O)=O
LNCaP
  IC50: 410 nM

## N#CCC(O)(c1nc2cc(Cl)c(Cl)cc2[nH]1)C(F)(F)F (stereo not given)
Androgen receptor [2]
  IC50: 2 nM

## Cc1c(N2C(=O)[C@@H]3[C@H](O)CCN3C2=O)ccc(C#N)c1Cl
Androgen receptor [11]
  EC50: 2.3 nM

## Cc1c(C(C)(O)C(F)(F)F)[nH]c2cc(C(F)(F)F)c(C#N)cc12 (stereo not given)
Rattus norvegicus
  ID50: 0.13 mg/day
Rattus norvegicus; at 2 mg
  Activity: 80%

## N#Cc1ccc(O[C@@H]2CCCC[C@H]2C#N)cc1C(F)(F)F
[1]
  Activity: 64%

## C[C@@]1(c2ccc(O)cc2)NC(=O)N(c2ccc(C#N)c(C(F)(F)F)c2)C1=O
Androgen receptor [12]
  IC50: 0.9 nM

## Cc1ccccc1Sc1ccc(C#N)cc1Cl
[1]
  Activity: >80%

## Cn1cc(N(Cc2ccccc2)c2ccc([N+](=O)[O-])cc2)cc1C(=O)N1CCCC1
SC-3
  IC50: 440 nM
Androgen receptor [13]
  Ki: 6 nM

## CC(C)(C)OC(=O)c1cccc2oc(=O)c3c(ccc4[nH]c(=O)cc(C(F)(F)F)c43)c12
Androgen receptor [14]
  EC50: 1.1 nM
Androgen receptor [3]
  Ki: 8.7 nM

## CC1(C)[C@H](NC(=O)c2ccc(N3CCN(CC4CCN(c5ccc6c(c5)C(=O)N(C5CCC(=O)NC5=O)C6=O)CC4)CC3)cc2)C(C)(C)[C@H]1Oc1ccc(C#N)c(Cl)c1 (stereo not given in full)
[15]
  DC50: 0.28 nM
[16]
  DC50: 8.3 nM
[17]
  bioavailability: 67%

## O=c1[nH]nc(Cc2c(Cl)cccc2Cl)c2ccccc12
SC-3
  IC50: 180 nM
LNCaP
  IC50: 560 nM

## OC1(C(F)(F)F)CCCC2c3cc(Cl)c(Cl)cc3NC21 (stereo not given)
Androgen receptor [18]
  IC50: 27 nM

## N#Cc1ccc(N2C(=O)N[C@@](CO)(c3ccccc3)C2=O)cc1C(F)(F)F
Androgen receptor [12]
  IC50: 13 nM

## CC(O)(C[S+]([O-])c1ccc(Cl)c(Cl)c1)c1cc2cc(Cl)c(C(F)(F)F)cc2[nH]1 (stereo not given)
Androgen receptor [2]
  IC50: 100 nM

## C[C@H]1[C@@H](O)CCN1c1ccc(C#N)c2ccccc12
Androgen receptor [3]
  IC50: 2.4 nM
Androgen receptor [19]
  EC50: 0.32 nM

## CC1(C)CN(CCC#N)C(=O)[C@@H]1Oc1ccc(C#N)c(Cl)c1
[20]
  Activity: 89%
